The values below come from PMC11144398, “Crizotinib inhibits the metabolism of tramadol by non-competitive suppressing the activities of CYP2D1 and CYP3A2” (PeerJ, 2024).

Series [1] has as its system tramadol metabolism (O-desmethyl tramadol production) in rat liver microsomes. In words: Liver microsomal incubation assay: inhibition of tramadol metabolism (O-desmethyl tramadol production) in RLM. The series is classed as in vitro ADME. As to conditions: rat, tramadol 60 µM. Here is the method: (§1) All the substance meet the requirements for analysis.
(§2) To obtain the Michaelis kinetic parameters of tramadol in RLM and HLM, a 200 µL incubation system was established containing 2 µL RLM or HLM (0.2 mg/mL), 186 µL 1xPBS buffer (pH = 7.4), 2 µL tramadol (10–500 µM), and 10 µL NADPH (1 mM). The mixture was pre-incubated for 5 min without NADPH in a water bath shaking at 37 °C. Then, NADPH was added to initiate the reaction, and the mixture was incubated for another 30 min. The reaction was terminated by adding 400 µL of cold ACN and 20 µL of IS (500 ng/mL).
(§3) For drug-interaction screening, 100 µM of each drug (1.6 µL) was added to the system, and added PBS to the final volume of 200 uL. Tramadol concentration was set at 60 µM according to the Km.
(§4) To determine the half-maximal inhibitory concentration (IC50), the concentration of crizotinib was set at 0.01, 0.1, 1, 10, 25, 50, and 100 µM, while the concentration of tramadol was constant at 60 µM in RLM or 100 µM in HLM (according to Km).
(§5) All data were presented as mean ± SD (standard deviation).

Series [2] deals with tramadol metabolism in rat liver microsomes (RLM). The series is described as above. To be noted: RLM. The series is classed as in vitro ADME. Here is the method:
as §1, §2, §3, §4, §5

For series [3], the system named is liver, kidney and small intestine. The experiment in a line: Morphological examination (H&E staining) of liver, kidney and small intestine. To be noted: crizotinib 45 mg/kg, single dose or 7 consecutive days; vs control group E. It is filed as in vivo, Sprague-Dawley rats. Here is the method: […] […] The blood, liver, kidney, and small intestine were harvested within 10 min and flash-frozen in liquid nitrogen before being transferred to −80 °C for later use.
Additionally, the tissues were fixed in 10% formalin solution and embedded in paraffin. Hematoxylin-eosin (H&E) staining was performed on paraffin sections, which had been dewaxed, dehydrated, and sealed with neutral gum. Pannoramic MIDI was then used to observe the tissues.

The nature of series [4]: Serum biochemical analysis (ALT, AST). It is filed as in vivo, Sprague-Dawley rats. As to conditions: vs control. Here is the method: (§6) Nine rats were randomly divided into three groups (n = 3): group E received 0.5% CMC-Na for 7 days; group F received 45 mg/kg crizotinib for 6 days; and group G received 45 mg/kg of crizotinib for 7 days. […] The blood, liver, kidney, and small intestine were harvested within 10 min and flash-frozen in liquid nitrogen before being transferred to −80 °C for later use.
Serum was collected after centrifugation of blood sample at 2400 × g for 5 min at 4 °C. The levels of ALT and AST were detected according to the protocol of ALT and AST activity assay kits.

A further series concerns the target T1, CYP2D1 (Rattus norvegicus, UniProt P10633).
T1 construct: All liver tissue samples were extracted into liver microsomes by homogenization and centrifugation; from tissue; host or cells: liver microsomes of Sprague-Dawley rats (control or dosed with crizotinib)
T1 sequence (P10633 1-504): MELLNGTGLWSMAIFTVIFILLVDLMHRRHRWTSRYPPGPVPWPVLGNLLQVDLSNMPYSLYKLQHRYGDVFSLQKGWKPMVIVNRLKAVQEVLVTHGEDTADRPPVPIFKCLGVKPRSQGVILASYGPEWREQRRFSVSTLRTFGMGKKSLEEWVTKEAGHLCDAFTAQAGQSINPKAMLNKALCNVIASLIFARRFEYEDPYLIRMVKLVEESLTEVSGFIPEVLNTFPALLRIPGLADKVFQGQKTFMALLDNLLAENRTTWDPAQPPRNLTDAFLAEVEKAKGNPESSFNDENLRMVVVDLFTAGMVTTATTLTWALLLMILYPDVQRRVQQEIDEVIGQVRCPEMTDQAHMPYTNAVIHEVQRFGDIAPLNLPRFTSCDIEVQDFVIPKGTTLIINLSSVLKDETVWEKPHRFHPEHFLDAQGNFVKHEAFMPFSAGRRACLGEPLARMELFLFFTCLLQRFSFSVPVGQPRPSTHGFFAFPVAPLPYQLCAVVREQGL
The experiment in a line: Activity of CYP2D1 in liver microsomes of treated rats (dextromethorphan probe). It is filed as in vitro ADME. Here is the method: as §6
(§7) All liver tissue samples were extracted into liver microsomes by homogenization and centrifugation, following the same operational steps as previously reported ([Simpson, 2010]). A new incubation system was established, which included 2 µL dextromethorphan or midazolam (the probe substrate of CYP2D1 or CYP3A2), 2 uL RLM (0.2 mg/mL) from different groups, 186 µL 1xPBS buffer, and 10 µL NADPH (1 mM). […] UPLC-MS/MS was used to detect the concentration of dextrorphan and 1-hydroxymidazolam to determine whether the activities of CYP2D1 and CYP3A2 in the liver were affected by crizotinib.
Background: Liver microsomes are vesicles of endoplasmic reticulum, rich in cytochrome P450 enzymes.

A further series deals with T2, CYP3A2 (Rattus norvegicus, UniProt P05183).
T2 construct: All liver tissue samples were extracted into liver microsomes by homogenization and centrifugation; from tissue; host or cells: liver microsomes of Sprague-Dawley rats (control or dosed with crizotinib)
T2 sequence (P05183 1-504): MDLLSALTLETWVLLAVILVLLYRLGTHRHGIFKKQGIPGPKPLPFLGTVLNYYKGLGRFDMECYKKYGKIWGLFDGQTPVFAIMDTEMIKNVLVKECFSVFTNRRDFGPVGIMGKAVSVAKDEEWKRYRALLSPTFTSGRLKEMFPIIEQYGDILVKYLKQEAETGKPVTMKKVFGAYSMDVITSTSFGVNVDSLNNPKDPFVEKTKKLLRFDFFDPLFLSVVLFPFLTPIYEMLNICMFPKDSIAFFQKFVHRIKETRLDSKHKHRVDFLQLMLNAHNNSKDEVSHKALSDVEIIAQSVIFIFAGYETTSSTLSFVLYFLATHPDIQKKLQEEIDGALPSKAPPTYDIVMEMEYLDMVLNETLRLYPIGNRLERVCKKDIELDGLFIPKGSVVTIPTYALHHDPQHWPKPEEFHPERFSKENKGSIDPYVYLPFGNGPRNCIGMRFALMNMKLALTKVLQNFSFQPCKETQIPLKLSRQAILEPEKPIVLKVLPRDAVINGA
In words: Activity of CYP3A2 in liver microsomes of treated rats (midazolam probe). The series is classed as in vitro ADME. As to conditions: RLM from crizotinib-treated rats (45 mg/kg); midazolam 10 µM. As for the experimental part:
as §6, §7

In series [5] the test system is total CYP in rat liver microsomes. The experiment in a line: Carbon monoxide differential UV spectrophotometric quantification of total CYP. It is filed as in vitro ADME. To be noted: RLM from crizotinib-treated rats (45 mg/kg); CO quantitative method. As for the experimental part: as §6
The CO quantitative method was utilized to measure the total quantity of CYP in rat liver microsomes. The microsomes were transferred to a 1.5 mL centrifuge tube and CO gas was introduced for 60 s. Next, sodium dithionite powder was added and mixed thoroughly. After two minutes, the absorbance of the liquid was measured at 450 nm and 490 nm ultraviolet wavelengths using an ultraviolet and visible spectrophotometer to calculate the total amount of CYP.

Setting [6] is: crizotinib 45 mg/kg for consecutive 7 days.
The mark [7] stands for this setting: crizotinib 45 mg/kg single dose.

In the case of `C[C@@H](Oc1cc(-c2cnn(C3CCNCC3)c2)cnc1N)c1c(Cl)ccc(F)c1Cl` [crizotinib], the inhibition at 30 min, 100 µM in series [1] (pH 7.4, RLM, 100 µM of each drug, vs control group, read-out: inhibitory rate on tramadol metabolism (production of O-desmethyl tramadol)) is 97.2%. Moreover, in series [1] (pH 7.4, RLM, crizotinib 0.01-100 µM), the IC50 (in general, the concentration needed to halve the response being measured) at 30 min stood at 8.74 ± 0.18 µM. In addition, the “inhibition mode of tramadol metabolism” value in series [2] (Lineweaver-Burk plot) is reported as “non-competitive”. Moreover, in series [2] (Lineweaver-Burk, crizotinib 0, 4, 8, 16 µM, tramadol 15-120 µM), the Ki (commonly a dissociation constant, usually derived from enzyme kinetics or from competition with a known ligand) was determined as 4.17 µM. For the same compound, the “changes in cell morphology, size, arrangement, nuclear morphology of liver, kidney and small intestine (H&E)” value in series [3] is “no obvious changes”. Also, the figures for the “level of serum ALT” value in series [4] (setting [6]) and in series [4] (setting [7]) were “increased significantly” and “no significant change”, respectively. The figures for the “level of serum AST” value in series [4] (setting [6]) and in series [4] (setting [7]) were “increased significantly” and “no significant change”, respectively. For the same compound, the “metabolic rate of dextromethorphan (CYP2D1 activity)” value is “decreased to different extents” on CYP2D1 (RLM from crizotinib-treated rats (45 mg/kg), dextromethorphan 25 µM) and “significant decrease” on CYP2D1 (crizotinib administered for seven days). Further, the “metabolic rate of midazolam (CYP3A2 activity)” value on CYP3A2 was “decreased to different extents”. Further, in series [5], the “total amount of CYP” value is on record as “decreased”.
